Test results: patent publication US20250032623A1, “HETEROBIFUNCTIONAL COMPOUNDS AND THEIR USE IN TREATING DISEASE” (HALDA THERAPEUTICS OPCO, INC., priority 2021, published 2025)
Like-named read-outs stand apart in the source and are kept apart here.

What was measured:
KRAS G12C = target: T1, KRAS G12C (Homo sapiens, UniProt P01116, G12C); experiment: KRAS G12C nucleotide exchange assay (SOS1 mediated, HTRF); type: biochemical; settings: 1 hr pre-incubation at RT, read-out: IC50 (inhibition of KRas G12C)
T1 construct: Kras (aa 2-169), GST; purchased Reaction Biology Corporation (RBC)
T1 sequence (P01116 2-169 isoform P01116-2 G12C): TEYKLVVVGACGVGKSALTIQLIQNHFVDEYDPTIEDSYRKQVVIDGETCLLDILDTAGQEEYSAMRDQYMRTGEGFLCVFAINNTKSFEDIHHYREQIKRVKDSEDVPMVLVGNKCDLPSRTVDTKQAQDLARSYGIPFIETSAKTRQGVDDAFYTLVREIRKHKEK
Experimental: Exemplary compounds were tested for ability to inhibit KRas G12C.
KRAS target engagement (IC50 determination) was performed using a KRAS G12C nucleotide exchange assay (Reaction Biology Corporation). Specifically, compounds were tested against KRAS G12C in 10-point concentration IC50 mode with 3-fold serial dilution at a starting concentration of 10 μM. ARS1620 was used as a control. Compounds were pre-incubated with protein for 1 hr at RT. Parameters for the assay were:
In the method, Kras was mixed with a-GST Tb antibody (1.5× solution) and […] was delivered to reaction wells. Compounds were delivered using acoustic dispenser (Echo, Labcyte). Kras/aGST-Tb Ab/compound mixture was incubated for 1 hour at room temperature. A 3× solution of SOS1 and GTP* was prepared in reaction buffer. A […] aliquot of SOS1/GTP* solution was added to reaction well to initiate the exchange reaction. No—SOS1 reaction or max compound concentration was used as blank. IC50 determination was performed using a Sigmoidal dose response (variable slope) equation.

HeLa cells = experiment: Cellular growth inhibition assay (CellTiter-Glo), HeLa cells; type: cell-based; settings: three days compound treatment, CellTiter-Glo 2.0, read-out: CTG HELA GI50
In short: (§1)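 GI50 derived by four-parameter regression of luminescence (CellTiter-Glo 2.0) at Day 0 and Day 3, normalized to DMSO wells. Cells (HeLa, HEK293; 500/well, DMEM plus 10% FBS) were dosed with compound dilutions 24 h post-seeding and exposed for three days at 37 °C.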

HEK293 cells = experiment: Cellular growth inhibition assay (CellTiter-Glo), HEK293 cells; type: cell-based; settings: three days compound treatment, CellTiter-Glo 2.0, read-out: CTG HEK293 GI50
In short: as §1

Compound	IC50 (KRAS G12C) [nM]	GI50 (HeLa cells; Homo sapiens, 72 h) [nM]	GI50 (HEK293 cells; Homo sapiens, 72 h) [nM]	GI50 (HeLa cells) [nM]	GI50 (HEK293 cells) [nM]
C=C(F)C(=O)N1CCN(c2nc(OC[C@@H]3CCCN3CCCOCCOCCn3cc(CNc4cc(N5CCCC[C@H]5CCO)nc5c(CC)cnn45)ccc3=O)nc3c2CCN(c2cccc4cccc(Cl)c24)C3)C[C@@H]1CC#N [Compound I-87, 2-[(2S)-4-[7-(8-chloro-1-naphthyl)-2-[[(2S)-1-[3-[2-[2-[5-[[[3-ethyl-5-[(2S)-2-(2-hydroxyethyl)-1-piperidyl]pyrazolo[1,5-a]pyrimidin-7-yl]amino]methyl]-2-oxo-1-pyridyl]ethoxy]ethoxy]propyl]pyrrolidin-2-yl]methoxy]-6,8-dihydro-5H-pyrido[3,4-d]pyrimidin-4-yl]-1-(2-fluoroprop-2-enoyl)piperazin-2-yl]acetonitrile]	< 100	500 to 1500	500 to 1500	–	–
C=C(F)C(=O)N1CCN(c2nc(OC[C@@H]3CCCN3CCCOCCOCCOc3ccc(CNc4cc(N5CCCC[C@H]5CCO)nc5c(CC)cnn45)cn3)nc3c2CCN(c2cccc4cccc(Cl)c24)C3)C[C@@H]1CC#N [Compound I-88, 2-[(2S)-4-[7-(8-chloro-1-naphthyl)-2-[[(2S)-1-[3-[2-[2-S[[5-[[[3-ethyl-5-[(2S)-2-(2-hydroxyethyl)-1-piperidyl]pyrazolo[1,5-a]pyrimidin-7-yl]amino]methyl]-2-pyridyl]oxy]ethoxy]ethoxy]propyl]pyrrolidin-2-yl]methoxy]-6,8-dihydro-5H-pyrido[3,4-d]pyrimidin-4-yl]-1-(2-fluoroprop-2-enoyl)piperazin-2-yl]acetonitrile]	< 100	500 to 1500	500 to 1500	–	–
CCc1cnn2c(NCc3ccc(OCCOCCOCCN(C)C/C=C/C(=O)N4CCN(c5nc(OC[C@@H]6CCCN6C)nc6c5CCN(c5cccc7cccc(Cl)c57)C6)C[C@@H]4CC#N)nc3)cc(N3CCCC[C@H]3CCO)nc12 [Compound I-89]	< 100	< 500	500 to 1500	–	–
CCc1cnn2c(NCc3ccc(OCCN(C)C/C=C/C(=O)N4CCN(c5nc(OC[C@@H]6CCCN6C)nc6c5CCN(c5cccc7cccc(Cl)c57)C6)C[C@@H]4CC#N)nc3)cc(N3CCCC[C@H]3CCO)nc12 [Compound I-91, 2-[(2S)-4-[7-(8-chloro-1-naphthyl)-2-[[(2S)-1-methylpyrrolidin-2-yl]methoxy]-6,8-dihydro-5H-pyrido[3,4-d]pyrimidin-4-yl]-1-[(E)-4-[2-[[5-[[[3-ethyl-5-[(2S)-2-(2-hydroxyethyl)-1-piperidyl]pyrazolo [1,5-a]pyrimidin-7-yl]amino]methyl]-2-pyridyl]oxy]ethyl-methyl-amino]but-2-enoyl]piperazin-2-yl]acetonitrile]	< 100	< 500	< 500	–	–
CCc1cnn2c(NCc3ccc(OCCOCCOCCOCCOCCOCCOCCOCCOCCN(C)C/C=C/C(=O)N4CCN(c5nc(OC[C@@H]6CCCN6C)nc6c5CCN(c5cccc7cccc(Cl)c57)C6)C[C@@H]4CC#N)nc3)cc(N3CCCC[C@H]3CCO)nc12 [Compound I-93, 2-((S)-4-(7-(8-chloronaphthalen-1-yl)-2-(((S)-1-methylpyrrolidin-2-yl)methoxy)-5,6,7,8-tetrahydropyrido[3,4d]pyrimidin4-yl)-1-((E)-1-((5-(((3-ethyl-5-((S)-2-(2-hydroxyethyl)piperidin-1-yl)pyrazolo[1,5-a]pyrimidin-7-yl)amino)methyl)pyridin-2-yl)oxy)-27-methyl-3,6,9,12,15,18,21,24-octaoxa-27-azahentriacont-29-en-31-oyl)piperazin-2-yl)acetonitrile]	< 100	< 500	1500 to 5000	–	–
CCc1cnn2c(NCc3ccc(OCCOCCOCCOCCOCCOCCOCCN(C)C/C=C/C(=O)N4CCN(c5nc(OC[C@@H]6CCCN6C)nc6c5CCN(c5cccc7cccc(Cl)c57)C6)C[C@@H]4CC#N)nc3)cc(N3CCCC[C@H]3CCO)nc12 [Compound I-94, 2-((S)-4-(7-(8-chloronaphthalen-1-yl)-2-(((S)-1-methylpyrrolidin-2-yl)methoxy) -5,6,7,8-tetrahydropyrido[3,4-d]pyrimidin-4-yl)-1-((E)-1-((5-(((3-ethyl-5-((S)-2-(2-hydroxyethyl)piperidin-1-yl)pyrazolo[1,5-a]pyrimidin-7-yl)amino)methyl)pyridin-2-yl)oxy)-21-methyl-3,6,9,12,15,18-hexaoxa-21-azapentacos-23-en-25-oyl)piperazin-2-yl)acetonitrile]	< 100	500 to 1500	1500 to 5000	–	–
CCc1cnn2c(NCc3ccc(OCCOCCOCCOCCOCCOCCOCCOC/C=C/C(=O)N4CCN(c5nc(OC[C@@H]6CCCN6C)nc6c5CCN(c5cccc7cccc(Cl)c57)C6)C[C@@H]4CC#N)nc3)cc(N3CCCC[C@H]3CCO)nc12 [Compound I-95]	1000 to 5000	> 5000	1500 to 5000	–	–
C=C(F)C(=O)N1CCN(c2nc(OC[C@@H]3CCCN3CCCOCCOCCOCCOCCN(C)C(=O)N3N=C(c4cc(F)ccc4F)S[C@@]3(CCCN)c3ccccc3)nc3c2CCN(c2cccc4cccc(Cl)c24)C3)C[C@@H]1CC#N [Compound I-98, 2-(3-aminopropyl)-N-[2-[2-[2-[2-[3-[(2S)-2-[[7-(8-chloro-1-naphthyl)-4-[(3S)-3-(cyanomethyl)-4-(2-fluoroprop-2-enoyl)piperazin-1-yl]-6,8-dihydro-5H-pyrido[3,4-d]pyrimidin-2-yl]oxymethyl]pyrrolidin-1-yl]propoxy]ethoxy]ethoxy]ethoxy]ethyl]-5-(2,5-difluorophenyl)-N-methyl-2-phenyl-1,3,4-thiadiazole-3-carboxamide]	< 100	500 to 1500	1500 to 5000	–	–
C=C(F)C(=O)N1CCN(c2nc(OC[C@@H]3CCCN3CCCOCCOCCN(C)C(=O)N3N=C(c4cc(F)ccc4F)SC3(CCCN)c3ccccc3)nc3c2CCN(c2cccc4cccc(Cl)c24)C3)C[C@@H]1CC#N (stereo partly drawn) [Compound I-99, 2-(3-aminopropyl)-N-[2-[2-[3-[(2S)-2-[[7-(8-chloro-1-naphthyl)-4-[(3S)-3-(cyanomethyl)-4-(2-fluoroprop-2-enoyl)piperazin-1-yl]-6,8-dihydro-5H-pyrido[3,4-d]pyrimidin-2-yl]oxymethyl]pyrrolidin-1-yl]propoxy]ethoxy]ethyl]-5-(2,5-difluorophenyl)-N-methyl-2-phenyl-1,3,4-thiadiazole-3-carboxamide]	< 100	500 to 1500	1500 to 5000	–	–
C=C(F)C(=O)N1CCN(c2nc(OC[C@@H]3CCCN3CCCOCCOCCOCCOCCOCCOCCN(C)C(=O)N3N=C(c4cc(F)ccc4F)S[C@@]3(CCCN)c3ccccc3)nc3c2CCN(c2cccc4cccc(Cl)c24)C3)C[C@@H]1CC#N [Compound I-100, (2S)-2-(3-aminopropyl)-N-[2-[22[2-[2-[2-[2-[3-[(2S)-2-[[7-(8-chloro-1-naphthyl)-4-[(3S)-3-(cyanomethyl)-4-(2-fluoroprop-2-enoyl)piperazin-1-yl]-6,8-dihydro-5H-pyrido[3,4-d]pyrimidin-2-yl]oxymethyl]pyrrolidin-1-yl]propoxy]ethoxy]ethoxy]ethoxy]ethoxy]ethoxy]ethyl]-5-(2,5-difluorophenyl)-N-methyl-2-phenyl-1,3,4-thiadiazole-3-carboxamide]	< 100	1500 to 5000	> 5000	–	–
C=C(F)C(=O)N1CCN(c2nc(OC[C@@H]3CCCN3CCCOCCOCCOCCOCCOCCOCCOCCOCCN(C)C(=O)N3N=C(c4cc(F)ccc4F)S[C@@]3(CCCN)c3ccccc3)nc3c2CCN(c2cccc4cccc(Cl)c24)C3)C[C@@H]1CC#N [Compound I-101]	< 100	–	–	1500 to 5000	1500 to 5000
C=C(F)C(=O)N1CCN(c2nc(OC[C@@H]3CCCN3CCCN3CCN(CCNC(=O)c4ccc(Nc5ncc6c(n5)N(C5CCCC5)[C@H](CC)C(=O)N6C)c(OC)c4)CC3)nc3c2CCN(c2cccc4cccc(Cl)c24)C3)C[C@@H]1CC#N [Compound I-106, N-[2-[4-[3-[(2S)-2-[[7-(8-chloro-1-naphthyl)-4-[(3S)-3-(cyanomethyl)-4-(2-fluoroprop-2-enoyl)piperazin-1-yl]-6,8-dihydro-5H-pyrido[3,4-d]pyrimidin-2-yl]oxymethyl]pyrrolidin-1-yl]propyl]piperazin-1-yl]ethyl]-4-[[(7R)-8-cyclopentyl-7-ethyl-5-methyl-6-oxo-7H-pteridin-2-yl]amino]-3-methoxy-benzamide]	< 100	500 to 1500	500 to 1500	–	–
